In patent US20200016159A1, “N3-CYCLICALLY SUBSTITUTED THIENOURACILS AND USE THEREOF” (Bayer Aktiengesellschaft, priority 2016, published 2020) one finds IC50 data, which are given here for 23 compounds.

The target of this experiment is T1, human adenosine A2b receptor (Homo sapiens, UniProt P29275).
T1 sequence (P29275 1-332): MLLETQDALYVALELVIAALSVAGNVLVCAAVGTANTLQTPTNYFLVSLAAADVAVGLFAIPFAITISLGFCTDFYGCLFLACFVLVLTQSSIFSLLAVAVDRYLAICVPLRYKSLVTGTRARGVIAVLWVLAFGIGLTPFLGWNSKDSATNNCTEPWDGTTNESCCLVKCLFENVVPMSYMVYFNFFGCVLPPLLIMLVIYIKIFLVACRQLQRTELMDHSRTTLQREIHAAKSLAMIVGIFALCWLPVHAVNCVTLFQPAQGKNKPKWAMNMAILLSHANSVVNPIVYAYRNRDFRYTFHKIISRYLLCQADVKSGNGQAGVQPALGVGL
Nature of the experiment: Cellular in vitro reporter gene test for A2b receptor activity (antagonism of NECA). The class given is cell-based. Details: expressed in transfected cells; host or cells: CHO-K1 (Chinese hamster ovary) with CRE-luciferase reporter. The conditions noted are these: recombinant CHO-K1 cells, CRE-luciferase reporter, co-incubation with EC50 concentration of NECA, 3 hours. How it is done: The identification of selective antagonists of the human adenosine A2b receptor and the quantification of the efficacy and selectivity of the compounds according to the invention was carried out with the aid of recombinant cell lines for the human adenosine receptors A1, A2a, A2b and A3. These cell lines were originally derived from an ovarepithelial cell of the hamster (Chinese Hamster Ovary, CHO-K1, American Type Culture Collection, Manassas, Va. 20108, USA). In addition to the respective recombinantly expressed adenosine receptor for testing the efficacy at the A1, A2a and A2b receptors, the cell lines contain a reporter gene construct where expression of the firefly (Photinus pyralis) luciferase is under the control of a promoter which can be activated via intracellular signal cascades by stimulation of the receptors with the (not subtype-selective) adenosine receptor agonist NECA (5′-N-ethylcarboxamidoadenosine) [S. J. Hill, J. G. Baker, S. Rhees, Curr. Opin. Pharmacol. 1, 526-532 (2001)].
In the case of the A2a and A2b cell lines, this is a minimal promoter having a plurality of cAMP-responsive elements (CRE). Stimulation of the Gs-coupled A2b or A2a receptors by NECA ultimately leads, via formation of cAMP, to CRE-dependent induction of luciferase expression, which is detected 3 hours after the start of the incubation with NECA using a detection solution in a suitable luminometer. For testing the antagonists, initially, in a pre-experiment, the concentration of NECA which, at the test day in question, results in half-maximum stimulation of luciferase expression (EC50 concentration) is determined. By joint incubation of this EC50 concentration of NECA with the substances to be tested, it is possible to determine their antagonistic activity.
Table 1 below lists the IC50 values from the A2b receptor assay for individual working examples (in some cases as means of a plurality of independent individual determinations and rounded to two significant figures; it may also be the case here that various independent preparations of the respective working example have been used): […]
On the technique in general: A reporter such as luciferase makes a cellular process visible.
As for `COCCn1c(=O)n([C@H]2C[C@@H](OC)C2)c(=O)c2c(C)c(Cn3nc[nH]c3=O)sc21` [Example 163, 3-(cis-3-Methoxycyclobutyl)-1-(2-methoxyethyl)-5-methyl-6-[(5-oxo-4,5-dihydro-1H-1,2,4-triazol-1-yl)methyl]thieno[2,3-d]pyrimidine-2,4(1H,3H)-dione], the IC50 is 1200 nM.
With `COCCn1c(=O)n(C2(C)CC2)c(=O)c2c(C)c(CN3CCNC3=NC(=O)OC)sc21` [Example 72, Methyl [1-{[1-(2-methoxyethyl)-5-methyl-3-(1-methylcyclopropyl)-2,4-dioxo-1,2,3,4-tetrahydrothieno[2,3-d]pyrimidin-6-yl]methyl}imidazolidine-2-ylidene]carbamate] the figure was 15 nM.
Consider `COCCn1c(=O)n(C2CC(F)(F)C2)c(=O)c2c(C)c(Cn3nc[nH]c3=O)sc21` [Example 129, 3-(3,3-Difluorocyclobutyl)-1-(2-methoxyethyl)-5-methyl-6-[(5-oxo-4,5-dihydro-H-1,2,4-triazol-1-yl)methyl]thieno[2,3-d]pyrimidine-2,4(1H,3H)-dione], for which the half-inhibitory concentration (IC50) stood at 280 nM.
As for `Cc1c(CN2CCNC2=O)sc2c1c(=O)n([C@H]1C[C@@H]1C)c(=O)n2CC1CCO1` (single isomer, unassigned) [Example 283], the half-inhibitory concentration (IC50) is 25 nM.
With `Cc1c(CN2CCNC2=S)sc2c1c(=O)n(C1CC1)c(=O)n2CCC(F)(F)F` [Example 10, 3-Cyclopropyl-5-methyl-6-[(2-thioxoimidazolidin-1-yl)methyl]-1-(3,3,3-trifluoropropyl)thieno[2,3-d]pyrimidine-2,4(1H,3H)-dione] the figure was 1.5 nM; with `COCCn1c(=O)n(C2(C)CC2)c(=O)c2c(C)c(Cn3nc[nH]c3=O)sc21` [Example 74, 1-(2-Methoxyethyl)-5-methyl-3-(1-methylcyclopropyl)-6-[(5-oxo-4,5-dihydro-1H-1,2,4-triazol-1-yl)methyl]thieno[2,3-d]pyrimidine-2,4(1H,3H)-dione], 86 nM; with `COCCn1c(=O)n(C2CCC2)c(=O)c2c(C)c(Cn3nc[nH]c3=O)sc21` [Example 119, 3-Cyclobutyl-1-(2-methoxyethyl)-5-methyl-6-[(5-oxo-4,5-dihydro-H-1,2,4-triazol-1-yl)methyl]thieno[2,3-d]pyrimidine-2,4(1H,3H)-dione], 12 nM.
Under `Cc1c(Cn2nc[nH]c2=O)sc2c1c(=O)n(C1CC1)c(=O)n2CC1CCC(F)(F)C1` (racemic) [Example 209, 3-Cyclopropyl-1-[(3,3-difluorocyclopentyl)methyl]-5-methyl-6-[(5-oxo-4,5-dihydro-1H-1,2,4-triazol-1-yl)methyl]thieno[2,3-d]pyrimidine-2,4(1H,3H)-dione] stands 200 nM.
Turning to `Cc1c(Cn2nc[nH]c2=O)sc2c1c(=O)n(C1CC1)c(=O)n2CC1CC(F)(F)C1` [Example 206, 3-Cyclopropyl-1-[(3,3-difluorocyclobutyl)methyl]-5-methyl-6-[(5-oxo-4,5-dihydro-1H-1,2,4-triazol-1-yl)methyl]thieno[2,3-d]pyrimidine-2,4(1H,3H)-dione], the IC50 turned out to be 6.2 nM.
As for `Cc1c(Cn2nc[nH]c2=O)sc2c1c(=O)n(C1CC1)c(=O)n2CC1CC1(F)F` (single isomer, unassigned; enantiomer 2) [Example 22, 3-Cyclopropyl-1-[(2,2-difluorocyclopropyl)methyl]-5-methyl-6-[(5-oxo-4,5-dihydro-1H-1,2,4-triazol-1-yl)methyl]thieno[2,3-d]pyrimidine-2,4(1H,3H)-dione (enantiomer 2)], the IC50 stood at 280 nM.
Under `Cc1c(CN2CCNC2=NC#N)sc2c1c(=O)n(C1CC1C)c(=O)n2CCOC(F)(F)F` (racemic) [Example 264, [1-({5-Methyl-3-(2-methylcyclopropyl)-2,4-dioxo-1-[2-(trifluoromethoxy)ethyl]-1,2,3,4-tetrahydrothieno[2,3-d]pyrimidin-6-yl}methyl)imidazolidin-2-ylidene]cyanamide] stands 16 nM; under `COCCn1c(=O)n(C2CC2C)c(=O)c2c(C)c(CN3CCNC3=O)sc21` (racemic) [Example 94, 1-(2-Methoxyethyl)-5-methyl-3-(2-methylcyclopropyl)-6-[(2-oxoimidazolidin-1-yl)methyl]thieno[2,3-d]pyrimidine-2,4(1H,3H)-dione], 7.2 nM; under `Cc1c(Cn2[nH]ccc2=O)sc2c1c(=O)n(C1CC(F)(F)C1)c(=O)n2CCC(F)(F)F` [Example 313, 3-(3,3-Difluorocyclobutyl)-5-methyl-6-[(5-oxo-2,5-dihydro-1H-pyrazol-1-yl)methyl]-1-(3,3,3-trifluoropropyl)thieno[2,3-d]pyrimidine-2,4(1H,3H)-dione], 93 nM.
With `Cc1c(CN2CCNC2=O)sc2c1c(=O)n(C1(C)CC1)c(=O)n2CC1CC1(F)F` (single isomer, unassigned) [Example 65, 1-[(2,2-Difluorocyclopropyl)methyl]-5-methyl-3-(1-methylcyclopropyl)-6-[(2-oxoimidazolidin-1-yl)methyl]thieno[2,3-d]pyrimidine-2,4(1H,3H)-dione] the figure was 36 nM; with `COCCn1c(=O)n([C@H]2C[C@H](OC)C2)c(=O)c2c(C)c(CN3CCNC3=NC(=O)OC)sc21` [Example 151, Methyl [1-{[3-(trans-3-methoxycyclobutyl)-1-(2-methoxyethyl)-5-methyl-2,4-dioxo-1,2,3,4-tetrahydrothieno[2,3-d]pyrimidin-6-yl]methyl}imidazolidin-2-ylidene]carbamate], 45 nM.
Under `Cc1c(Cn2cc[nH]c2=O)sc2c1c(=O)n(C1CC1)c(=O)n2CC1CCCO1` (single isomer, unassigned) [Example 48, 3-Cyclopropyl-5-methyl-6-[(2-oxo-2,3-dihydro-H-imidazol-1-yl)methyl]-1-(tetrahydrofuran-2-ylmethyl)thieno[2,3-d]pyrimidine-2,4(1H,3H)-dione] stands 56 nM.
In the case of `Cc1c(CN2CCNC2=O)sc2c1c(=O)n(C1CC1)c(=O)n2CCOC(F)(F)F` [Example 35, 3-Cyclopropyl-5-methyl-6-[(2-oxoimidazolidin-1-yl)methyl]-1-[2-(trifluoromethoxy)ethyl]thieno[2,3-d]pyrimidine-2,4(1H,3H)-dione], the IC50 is 1.8 nM.
With `Cc1c(CN2CCNC2=O)sc2c1c(=O)n(C1CC1C)c(=O)n2CC1CCOC1` (single isomer, unassigned) [Example 292, 5-Methyl-3-(2-methylcyclopropyl)-6-[(2-oxoimidazolidin-1-yl)methyl]-1-(tetrahydrofuran-3-ylmethyl)thieno[2,3-d]pyrimidine-2,4(1H,3H)-dione] the figure was 150 nM; with `Cc1c(CN2CCNC2=O)sc2c1c(=O)n([C@H]1C[C@@H]1C)c(=O)n2CC1CC1(F)F` (single isomer, unassigned) [Example 251], 6.3 nM.
As for `Cc1c(CN2CCNC(=O)C2=O)sc2c1c(=O)n(C1CC3(CCC3)C1)c(=O)n2CCC(F)(F)F` [Example 177, 6-[(2,3-Dioxopiperazin-1-yl)methyl]-5-methyl-3-(spiro[3.3]hept-2-yl)-1-(3,3,3-trifluoropropyl)thieno[2,3-d]pyrimidine-2,4(1H,3H)-dione], the IC50 was found to be 17 nM.
Regarding `CCOCCn1c(=O)n(C2CC2)c(=O)c2c(C)c(CN3CCNC3=O)sc21` [Example 31, 3-Cyclopropyl-1-(2-ethoxyethyl)-5-methyl-6-[(2-oxoimidazolidin-1-yl)methyl]thieno[2,3-d]pyrimidine-2,4(1H,3H)-dione], the IC50 amounted to 67 nM.
Take `Cc1c(CN2CCNC2=O)sc2c1c(=O)n(C1CC1C)c(=O)n2C[C@H]1CCCO1` (stereo partly drawn) [Example 286, 5-Methyl-3-(2-methylcyclopropyl)-6-[(2-oxoimidazolidin-1-yl)methyl]-1-[(2R)-tetrahydrofuran-2-ylmethyl]thieno[2,3-d]pyrimidine-2,4(1H,3H)-dione]: the IC50 is 17 nM.
On to `COCCn1c(=O)n(C2CC2C(F)(F)F)c(=O)c2c(C)c(Cn3nc[nH]c3=O)sc21` (single isomer, unassigned) [Example 298, 1-(2-Methoxyethyl)-5-methyl-6-[(5-oxo-4,5-dihydro-1H-1,2,4-triazol-1-yl)methyl]-3-[2-(trifluoromethyl)cyclopropyl]thieno[2,3-d]pyrimidine-2,4(1H,3H)-dione], for which the IC50 worked out at 1800 nM.

Usually IC50 stands for the concentration that gives 50% inhibition.
